Data from ChEMBL document CHEMBL5291721, “A preclinical secondary pharmacology resource illuminates target-adverse drug reaction associations of marketed drugs” (Nat Commun, 2023).

Tests used:
[1] = molecular target: T1, 5-hydroxytryptamine receptor 2C (Homo sapiens, UniProt P28335)
T1 sequence (P28335 whole entry): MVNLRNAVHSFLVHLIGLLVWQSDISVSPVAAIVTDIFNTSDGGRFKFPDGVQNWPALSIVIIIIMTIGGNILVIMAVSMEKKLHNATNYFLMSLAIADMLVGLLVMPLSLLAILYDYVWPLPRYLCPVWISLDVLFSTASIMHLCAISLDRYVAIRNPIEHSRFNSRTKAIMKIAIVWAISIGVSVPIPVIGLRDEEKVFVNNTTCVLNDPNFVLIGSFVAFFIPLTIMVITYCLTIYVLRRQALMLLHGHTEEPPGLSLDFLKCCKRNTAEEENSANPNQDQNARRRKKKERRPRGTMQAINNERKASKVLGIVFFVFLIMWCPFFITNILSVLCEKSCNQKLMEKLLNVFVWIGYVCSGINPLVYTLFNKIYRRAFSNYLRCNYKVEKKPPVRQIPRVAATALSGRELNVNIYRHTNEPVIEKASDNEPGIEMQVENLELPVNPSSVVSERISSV

[2] = molecular target: T2, Muscarinic acetylcholine receptor M2 (Homo sapiens, UniProt P08172); assay type: functional, cell-based
T2 sequence (P08172 whole entry): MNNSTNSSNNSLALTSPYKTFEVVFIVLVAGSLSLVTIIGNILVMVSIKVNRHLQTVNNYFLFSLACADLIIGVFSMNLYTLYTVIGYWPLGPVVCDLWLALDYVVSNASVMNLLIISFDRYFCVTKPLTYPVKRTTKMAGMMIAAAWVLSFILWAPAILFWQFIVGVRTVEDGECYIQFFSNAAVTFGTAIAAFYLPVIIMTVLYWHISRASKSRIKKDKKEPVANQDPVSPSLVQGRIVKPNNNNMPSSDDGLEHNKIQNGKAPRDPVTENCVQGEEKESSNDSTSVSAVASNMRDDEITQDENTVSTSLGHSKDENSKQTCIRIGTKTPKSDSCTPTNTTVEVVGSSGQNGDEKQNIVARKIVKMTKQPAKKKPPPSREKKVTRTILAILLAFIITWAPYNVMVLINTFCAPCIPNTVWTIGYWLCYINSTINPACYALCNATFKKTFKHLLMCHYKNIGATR

Progesterone receptor = molecular target: T3, Progesterone receptor (Homo sapiens, UniProt P06401); assay type: functional
T3 sequence (P06401 whole entry): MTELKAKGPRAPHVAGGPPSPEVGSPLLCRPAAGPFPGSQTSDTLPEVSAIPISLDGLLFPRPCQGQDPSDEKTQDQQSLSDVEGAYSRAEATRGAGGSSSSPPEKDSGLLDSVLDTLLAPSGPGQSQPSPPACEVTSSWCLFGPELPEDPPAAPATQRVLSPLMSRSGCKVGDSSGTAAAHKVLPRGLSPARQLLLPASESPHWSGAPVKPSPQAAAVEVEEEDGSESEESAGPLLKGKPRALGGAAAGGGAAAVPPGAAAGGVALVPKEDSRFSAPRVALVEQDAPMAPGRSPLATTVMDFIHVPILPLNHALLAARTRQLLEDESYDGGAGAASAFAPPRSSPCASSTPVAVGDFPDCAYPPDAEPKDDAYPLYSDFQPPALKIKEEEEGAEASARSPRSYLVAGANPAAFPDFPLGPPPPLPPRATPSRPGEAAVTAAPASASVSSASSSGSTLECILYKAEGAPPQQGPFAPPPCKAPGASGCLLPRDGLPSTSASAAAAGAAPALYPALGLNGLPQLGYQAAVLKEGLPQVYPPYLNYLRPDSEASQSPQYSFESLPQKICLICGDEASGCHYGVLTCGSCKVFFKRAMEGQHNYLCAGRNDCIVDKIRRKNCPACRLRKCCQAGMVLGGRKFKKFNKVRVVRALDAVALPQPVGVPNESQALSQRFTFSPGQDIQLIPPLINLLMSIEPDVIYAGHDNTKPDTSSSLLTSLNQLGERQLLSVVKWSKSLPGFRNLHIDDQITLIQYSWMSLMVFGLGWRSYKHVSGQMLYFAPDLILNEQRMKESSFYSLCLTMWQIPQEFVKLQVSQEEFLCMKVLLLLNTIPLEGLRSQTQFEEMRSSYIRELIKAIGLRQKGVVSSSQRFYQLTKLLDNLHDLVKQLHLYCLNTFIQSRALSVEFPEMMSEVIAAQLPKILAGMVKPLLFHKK

[3] = molecular target: Sodium-dependent noradrenaline transporter (Homo sapiens, UniProt P23975)
[4] = molecular target: 5-hydroxytryptamine receptor 2B (Homo sapiens, UniProt P41595); assay type: functional, cell-based
Histamine H3 receptor = Histamine H3 receptor (Homo sapiens, UniProt Q9Y5N1)
Adenosine receptor A3 = molecular target: T4, Adenosine receptor A3 (Homo sapiens, UniProt P0DMS8)
T4 sequence (P0DMS8 whole entry): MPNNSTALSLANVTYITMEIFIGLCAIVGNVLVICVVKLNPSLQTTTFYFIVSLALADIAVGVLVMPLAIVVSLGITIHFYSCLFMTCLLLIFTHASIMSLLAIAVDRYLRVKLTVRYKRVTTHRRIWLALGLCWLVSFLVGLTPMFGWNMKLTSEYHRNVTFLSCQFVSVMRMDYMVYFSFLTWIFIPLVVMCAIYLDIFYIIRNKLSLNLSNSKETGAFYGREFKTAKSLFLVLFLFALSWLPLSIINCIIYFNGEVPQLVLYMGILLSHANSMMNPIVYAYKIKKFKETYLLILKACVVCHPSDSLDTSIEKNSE

[5] = molecular target: Sodium-dependent dopamine transporter (Homo sapiens, UniProt Q01959)
Adenosine receptor A1 = molecular target: T5, Adenosine receptor A1 (Homo sapiens, UniProt P30542)
T5 sequence (P30542 whole entry): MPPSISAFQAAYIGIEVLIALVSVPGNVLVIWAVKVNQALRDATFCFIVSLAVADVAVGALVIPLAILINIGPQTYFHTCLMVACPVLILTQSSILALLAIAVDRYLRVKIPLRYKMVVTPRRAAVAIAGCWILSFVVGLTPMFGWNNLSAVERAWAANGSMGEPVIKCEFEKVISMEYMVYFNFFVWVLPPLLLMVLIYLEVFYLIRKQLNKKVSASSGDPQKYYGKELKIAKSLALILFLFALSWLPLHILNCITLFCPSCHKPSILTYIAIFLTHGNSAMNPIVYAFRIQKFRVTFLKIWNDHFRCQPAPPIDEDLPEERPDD

Motilin receptor = Motilin receptor (Homo sapiens, UniProt O43193)
Also: assay procedure not described here.

Sodium-dependent noradrenaline transporter, sequence (P23975 whole entry): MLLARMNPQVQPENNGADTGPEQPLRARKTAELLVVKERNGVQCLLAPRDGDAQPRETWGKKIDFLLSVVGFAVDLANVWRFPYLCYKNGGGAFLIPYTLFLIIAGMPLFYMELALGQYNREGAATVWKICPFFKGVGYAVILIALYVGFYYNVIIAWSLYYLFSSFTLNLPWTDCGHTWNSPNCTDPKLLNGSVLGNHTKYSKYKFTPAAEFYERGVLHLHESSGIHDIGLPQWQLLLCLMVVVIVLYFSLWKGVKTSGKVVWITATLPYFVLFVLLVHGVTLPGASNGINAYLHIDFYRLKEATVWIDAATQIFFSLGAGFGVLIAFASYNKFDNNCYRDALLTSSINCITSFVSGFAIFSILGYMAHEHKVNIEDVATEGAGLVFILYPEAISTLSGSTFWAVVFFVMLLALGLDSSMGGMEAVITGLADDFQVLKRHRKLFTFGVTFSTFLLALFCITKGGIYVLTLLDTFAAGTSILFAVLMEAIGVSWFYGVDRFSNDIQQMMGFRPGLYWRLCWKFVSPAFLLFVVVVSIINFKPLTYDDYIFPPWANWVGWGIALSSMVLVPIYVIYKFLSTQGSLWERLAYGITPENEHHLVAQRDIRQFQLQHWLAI
Histamine H3 receptor, sequence (Q9Y5N1 whole entry): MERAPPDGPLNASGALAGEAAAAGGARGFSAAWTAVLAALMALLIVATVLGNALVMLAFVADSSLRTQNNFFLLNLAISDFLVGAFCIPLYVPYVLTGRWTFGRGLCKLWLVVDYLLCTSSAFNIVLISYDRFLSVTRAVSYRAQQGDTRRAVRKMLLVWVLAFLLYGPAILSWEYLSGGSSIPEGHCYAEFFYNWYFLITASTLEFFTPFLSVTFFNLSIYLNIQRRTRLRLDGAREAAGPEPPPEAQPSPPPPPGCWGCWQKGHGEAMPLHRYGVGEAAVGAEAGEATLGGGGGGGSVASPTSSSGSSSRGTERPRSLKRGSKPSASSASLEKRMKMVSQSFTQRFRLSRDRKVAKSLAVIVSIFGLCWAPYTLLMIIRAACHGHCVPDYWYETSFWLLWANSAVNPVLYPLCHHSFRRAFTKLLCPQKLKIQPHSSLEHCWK
Sodium-dependent dopamine transporter, sequence (Q01959 whole entry): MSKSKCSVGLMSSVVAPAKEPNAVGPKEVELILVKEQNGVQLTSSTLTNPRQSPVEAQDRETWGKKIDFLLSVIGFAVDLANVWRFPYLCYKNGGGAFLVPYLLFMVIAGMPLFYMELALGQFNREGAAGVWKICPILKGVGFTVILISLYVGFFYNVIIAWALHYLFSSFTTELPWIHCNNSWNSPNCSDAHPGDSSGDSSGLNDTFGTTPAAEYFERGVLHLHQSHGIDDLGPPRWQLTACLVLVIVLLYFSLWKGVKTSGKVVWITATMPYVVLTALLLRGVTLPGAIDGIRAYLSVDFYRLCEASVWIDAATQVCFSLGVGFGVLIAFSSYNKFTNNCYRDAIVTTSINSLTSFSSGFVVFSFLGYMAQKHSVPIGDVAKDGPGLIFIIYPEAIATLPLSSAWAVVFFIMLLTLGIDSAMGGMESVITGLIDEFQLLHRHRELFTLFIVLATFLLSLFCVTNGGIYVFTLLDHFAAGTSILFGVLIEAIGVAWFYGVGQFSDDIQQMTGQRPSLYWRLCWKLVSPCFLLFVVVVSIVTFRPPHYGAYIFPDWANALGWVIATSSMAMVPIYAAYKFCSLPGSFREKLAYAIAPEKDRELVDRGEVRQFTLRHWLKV
5-hydroxytryptamine receptor 2B, sequence (P41595 whole entry): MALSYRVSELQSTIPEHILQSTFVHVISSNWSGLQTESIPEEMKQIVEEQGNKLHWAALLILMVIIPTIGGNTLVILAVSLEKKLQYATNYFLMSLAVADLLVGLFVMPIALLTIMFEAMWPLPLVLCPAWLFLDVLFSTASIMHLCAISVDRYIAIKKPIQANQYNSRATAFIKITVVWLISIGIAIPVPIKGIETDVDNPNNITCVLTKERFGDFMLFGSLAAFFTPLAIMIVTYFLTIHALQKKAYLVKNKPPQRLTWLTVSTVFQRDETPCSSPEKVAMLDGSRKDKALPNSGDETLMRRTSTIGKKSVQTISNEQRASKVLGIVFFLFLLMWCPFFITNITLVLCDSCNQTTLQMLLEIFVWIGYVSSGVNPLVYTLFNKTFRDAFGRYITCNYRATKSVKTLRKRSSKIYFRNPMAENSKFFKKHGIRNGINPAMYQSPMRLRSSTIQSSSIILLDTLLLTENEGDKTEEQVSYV
Motilin receptor, sequence (O43193 whole entry): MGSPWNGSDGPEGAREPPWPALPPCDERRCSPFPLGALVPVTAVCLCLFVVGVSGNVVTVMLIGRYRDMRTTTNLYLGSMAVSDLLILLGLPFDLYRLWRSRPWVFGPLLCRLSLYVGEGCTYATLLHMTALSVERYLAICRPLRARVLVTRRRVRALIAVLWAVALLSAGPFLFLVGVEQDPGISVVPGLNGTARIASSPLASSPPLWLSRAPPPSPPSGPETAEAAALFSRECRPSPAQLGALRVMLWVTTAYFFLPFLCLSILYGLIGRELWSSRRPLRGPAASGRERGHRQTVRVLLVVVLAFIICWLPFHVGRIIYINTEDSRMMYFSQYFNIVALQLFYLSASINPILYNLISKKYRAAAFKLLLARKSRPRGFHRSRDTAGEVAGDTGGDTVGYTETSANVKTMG

| Structure (SMILES) | AC50 [1] [µM] | AC50 [2] [µM] | AC50 (Progesterone receptor) [µM] | AC50 [3] [µM] | AC50 [4] [µM] | AC50 (Histamine H3 receptor) [µM] | AC50 (Adenosine receptor A3) [µM] | AC50 [5] [µM] | AC50 (Adenosine receptor A1) [µM] | AC50 (Motilin receptor) [µM] |
| --- | --- | --- | --- | --- | --- | --- | --- | --- | --- | --- |
| CCC(NC(C)C)C(O)c1ccc(O)c2[nH]c(=O)ccc12 (stereo not given) [PROCATEROL] | > 30 | > 30 | > 30 | > 30 | > 30 | > 30 | > 30 | > 30 | > 30 | > 30 |
| C=CC[N+]1([C@H]2C[C@H]3[C@@H]4CC[C@H]5C[C@H](O)[C@@H](N6CCOCC6)C[C@]5(C)[C@H]4CC[C@]3(C)[C@H]2OC(C)=O)CCCC1 [ROCURONIUM] | > 30 | > 30 | > 30 | > 30 | > 30 | > 30 | > 30 | > 30 | > 30 | > 30 |
| CCCN1CCCC[C@H]1C(=O)Nc1c(C)cccc1C [ROPIVACAINE] | > 30 | > 30 | > 30 | > 30 | > 30 | > 30 | > 30 | > 30 | > 30 | > 30 |
| CCN1CCCC1CNC(=O)c1cc(S(=O)(=O)CC)ccc1OC (stereo not given) [SULTOPRIDE] | > 30 | > 30 | > 30 | > 30 | > 30 | 22 | > 30 | > 30 | > 30 | > 30 |
| CC(C)(C)NCC(O)c1ccccc1Cl (stereo not given) [TULOBUTEROL] | > 30 | > 30 | > 30 | > 30 | > 30 | > 30 | > 30 | > 30 | > 30 | > 30 |

Other lines, results leading:

| AC50 [1] [µM] | AC50 [2] [µM] | AC50 (Progesterone receptor) [µM] | AC50 [3] [µM] | AC50 [4] [µM] | AC50 (Histamine H3 receptor) [µM] | AC50 (Adenosine receptor A3) [µM] | AC50 [5] [µM] | AC50 (Adenosine receptor A1) [µM] | AC50 (Motilin receptor) [µM] | Structure (SMILES) |
| --- | --- | --- | --- | --- | --- | --- | --- | --- | --- | --- |
| > 30 | > 30 | > 30 | > 30 | > 30 | 3.3 | > 30 | > 30 | > 30 | > 30 | C=CCN1CCc2nc(N)sc2CC1 [TALIPEXOLE] |
| > 30 | > 30 | > 30 | > 30 | > 30 | > 30 | > 30 | > 30 | > 30 | > 30 | Cn1c(=O)c2c(ncn2CCOC(=O)C(C)(C)Oc2ccc(Cl)cc2)n(C)c1=O [THEOFIBRATE] |
| > 30 | > 30 | > 30 | > 30 | > 30 | > 30 | > 30 | > 30 | > 30 | > 30 | COc1cc(C(=O)NC2CCCNC2)cc(OC)c1OC (stereo not given) [TROXIPIDE] |
| > 30 | > 30 | > 30 | > 30 | > 30 | > 30 | > 30 | > 30 | > 30 | > 30 | CC(C(=O)O)c1ccc2c(c1)CC(=O)c1ccccc1S2 (stereo not given) [ZALTOPROFEN] |
| > 30 | > 10 | > 30 | > 10 | > 10 | > 10 | > 10 | > 10 | > 10 | > 10 | CC(c1cc2ccccc2s1)N(O)C(N)=O (stereo not given) [ZILEUTON] |
